The target in one test is human CB1 (Homo sapiens (Human), UniProt P21554). Kind of test: In vitro cannabinoid receptor activity assay (calcium mobilization, FLIPR) in CHO cells expressing human CB1 and Gαq16. Conditions: for EC50: CHO cells, hCB1, calcium fluorescence, read-out: hCB1 Ca EC50; for hCB1 Ca Span: percentage of the maximum CP55940 signal. The test is classed as cell-based. On the procedure: (§1) In vitro cannabinoid receptor activity assay. Chinese Hamster Ovary (CHO) cells stably expressing either human CB1 or CB2 cDNA and the promiscuous G-protein Gαq16 were transferred to each well of a black Costar 96-well optical bottom plate (Corning Corporation). Each plate was incubated at 37° C. for 24 hr to confluence. The culture media was removed from the plates and cells were subsequently loaded with a fluorescent calcium probe (Calcium 5 dye, Molecular Devices) at a final loading concentration of 2 μM in a HBSS-based buffer containing 20 mM HEPES, 1% BSA and 10 μM Probenecid (Sigma) in a total volume of 225 μl. Cells were incubated at 37° C. for 1 hr and then stimulated with various concentrations of a test agent using a FLIPR Tetra plate-reader, which automatically added the agonist at 10× concentration to each well after reading baseline values for ˜17 sec. Agonist-mediated change in fluorescence (488 nm excitation, 525 nm emission) was monitored in each well at 1 sec intervals for 60 sec and reported for each well. Data were analyzed using Prism software (GraphPad). Non-linear regression analysis was performed to fit data and obtain maximum response (Emax), effective concentration for 50% response (EC50), correlation coefficient (r2) and other parameters. All experiments were performed 3-6 times to ensure reproducibility.
(§2) Reference is made to the following reference, hereby incorporated by reference with regard to such assay, Seltzman, et al., Peripherally Selective Cannabinoid 1 Receptor (CB1R) Agonists for the Treatment of Neuropathic Pain, J Med Chem. 2016 Aug. 25; 59 (16):7525-43. doi: 10.1021/acs.jmedchem.6b00516. Epub 2016 Aug. 10.
(A change in cytosolic calcium serves as a functional read-out for many receptors and channels.)

The target of a further test is human CB2 (Homo sapiens (Human), UniProt P34972). Kind of test: In vitro cannabinoid receptor activity assay (calcium mobilization, FLIPR) in CHO cells expressing human CB2 and Gαq16. The test is classed as cell-based. Particulars: for EC50: CHO cells, hCB2, calcium fluorescence, read-out: hCB2 Ca EC50; for hCB2 Ca Span: percentage of the maximum CP55940 signal. How it is done: as §1, §2

Here are results for 19 molecules from patent US20230339863A1, “INDAZOLE DERIVATIVES AS CANNABINOID RECEPTOR PARTIAL AGONISTS” (RESEARCH TRIANGLE INSTITUTE, priority 2020, published 2023).

Broadly, the EC50 is the concentration giving half of the maximal effect.

As to `C[C@@H](NC(=O)c1nn(Cc2ccc(F)cc2)c2ccccc12)c1cccc(C(N)=O)c1` [Example 10, N-[(1R)-1-(3-Carbamoylphenyl)ethyl]-1-[(4-fluorophenyl)methyl]-1H-indazole-3-carboxamide], at human CB1, the EC50 came out at 490 nM and the “hCB1 Ca Span” value came out at 19%. In addition, on human CB2, the EC50 came to 660 nM and the “hCB2 Ca Span” value worked out at 25%.
For the molecule `CC(c1ccc(F)cc1)n1nc(C(=O)NC(C)(C)c2cccc(C(N)=O)c2)c2ccccc21` (stereo not drawn) [Example 14, N-[2-(3-Carbamoylphenyl)propan-2-yl]-1-[1-(4-fluorophenyl)ethyl]-1H-indazole-3-carboxamide], at human CB1, the EC50 stood at 240 nM and the “hCB1 Ca Span” value was determined as 76%. At human CB2, the EC50 is > 10000 nM.
Regarding `CC(C)(NC(=O)c1nn(CC2CCC(F)(F)CC2)c2ccccc12)c1cccc(C(N)=O)c1` [Example 15, N-[2-(3-Carbamoylphenyl)propan-2-yl]-1-[(4,4-difluorocyclohexyl)methyl]-1H-indazole-3-carboxamide], at human CB1, the EC50 was determined as 15 nM and the “hCB1 Ca Span” value was 86%. Moreover, on human CB2, the EC50 worked out at 51 nM and the “hCB2 Ca Span” value amounted to 38%.
For `CC(C)(NC(=O)c1nn(CC2CCOCC2)c2ccccc12)c1cccc(C(N)=O)c1` [Example 16, N-[2-(3-Carbamoylphenyl)propan-2-yl]-1-(oxan-4-ylmethyl)-1H-indazole-3-carboxamide], at human CB1, the EC50 stood at 140 nM and the “hCB1 Ca Span” value was found to be 92%. Also, at human CB2, the EC50 came to 63 nM and the “hCB2 Ca Span” value stood at 57%.
With `CCCCCn1nc(C(=O)NC(C)(C)c2cccc(C(N)=O)c2)c2ccccc21` [Example 17, N-[2-(3-Carbamoylphenyl)propan-2-yl]-1-pentyl-1H-indazole-3-carboxamide], on human CB1, the EC50 amounted to 220 nM and the “hCB1 Ca Span” value is recorded as 24%. Also, on human CB2, the EC50 was 180 nM and the “hCB2 Ca Span” value is 43%.
Consider `CC(C)(NC(=O)c1nn(CCCCCF)c2ccccc12)c1cccc(C(N)=O)c1` [Example 18, N-[2-(3-Carbamoylphenyl)propan-2-yl]-1-(5-fluoropentyl)-1H-indazole-3-carboxamide], for which, on human CB1, the EC50 was determined as 78 nM and the “hCB1 Ca Span” value was found to be 27%. At human CB2, the 50% effective concentration (EC50) worked out at 84 nM and the “hCB2 Ca Span” value was found to be 35%.
In the case of `CC(C)(NC(=O)c1nn(CCCCC(F)(F)F)c2ccccc12)c1cccc(C(N)=O)c1` [Example 19, N-[2-(3-Carbamoylphenyl)propan-2-yl]-1-(5,5,5-trifluoropentyl)-1H-indazole-3-carboxamide], on human CB1, the EC50 is 150 nM and the “hCB1 Ca Span” value turned out to be 64%. Moreover, at human CB2, the EC50 was found to be 480 nM and the “hCB2 Ca Span” value worked out at 39%.
For `CC(C)(NC(=O)c1nn(Cc2ccc(F)cc2)c2ccccc12)c1cccc(NC(N)=O)c1` [Example 21, N-{2-[3-(Carbamoylamino)phenyl]propan-2-yl}-1-[(4-fluorophenyl)methyl]-1H-indazole-3-carboxamide], on human CB1, the EC50 was found to be 1600 nM and the “hCB1 Ca Span” value was determined as 34%. At human CB2, the EC50 amounted to 160 nM and the “hCB2 Ca Span” value is 34%.
For the molecule `CC(C)(NC(=O)c1nn(CC2CCC(F)(F)CC2)c2ccccc12)c1cccc(NC(N)=O)c1` [Example 22, N-{2-[3-(Carbamoylamino)phenyl]propan-2-yl}-1-[(4,4-difluorocyclohexyl)methyl]-1H-indazole-3-carboxamide], at human CB1, the EC50 came to 160 nM and the “hCB1 Ca Span” value stood at 89%. Also, on human CB2, the EC50 was found to be 58 nM and the “hCB2 Ca Span” value was 51%.
With `CC(C)(NC(=O)c1nn(CC2CCOCC2)c2ccccc12)c1cccc(NC(N)=O)c1` [Example 23, N-{2-[3-(Carbamoylamino)phenyl]propan-2-yl}-1-(oxan-4-ylmethyl)-1H-indazole-3-carboxamide], on human CB1, the EC50 came to 1200 nM and the “hCB1 Ca Span” value came out at 91%. At human CB2, the half-maximal effective concentration (EC50) was 94 nM and the “hCB2 Ca Span” value stood at 61%.
The matching figures for `CCCCCn1nc(C(=O)NC(C)(C)c2cccc(NC(N)=O)c2)c2ccccc21` [Example 24, N-{2-[3-(Carbamoylamino)phenyl]propan-2-yl}-1-pentyl-1H-indazole-3-carboxamide]: 1300 nM, 52%, 320 nM and 47%.
The matching figures for `CC(C)(NC(=O)c1nn(CCCCCF)c2ccccc12)c1cccc(NC(N)=O)c1` [Example 25, N-{2-[3-(carbamoylamino)phenyl]propan-2-yl}-1-(5-fluoropentyl)-1H-indazole-3-carboxamide]: 570 nM, 65%, 170 nM and 51%.
Regarding `CNC(=O)Nc1cccc(C(C)(C)NC(=O)c2nn(CC3CCC(F)(F)CC3)c3ccccc23)c1` [Example 26, 1-[(4,4-Difluorocyclohexyl)methyl]-N-(2-{3-[(methylcarbamoyl)amino]phenyl}propan-2-yl)-1H-indazole-3-carboxamide], at human CB1, the EC50 was determined as 16 nM and the “hCB1 Ca Span” value is recorded as 110%. Also, at human CB2, the EC50 came to 34 nM and the “hCB2 Ca Span” value came out at 61%.
`CCCCCn1nc(C(=O)NC(C)(C)c2cccc(NC(=O)NC)c2)c2ccccc21` [Example 27, N-(2-{3-[(Methylcarbamoyl)amino]phenyl}propan-2-yl)-1-pentyl-1H-indazole-3-carboxamide]: at human CB1, the EC50 came out at 100 nM and the “hCB1 Ca Span” value came out at 100%. On human CB2, the EC50 worked out at 170 nM and the “hCB2 Ca Span” value was 55%.
`CNC(=O)Nc1cccc(C(C)(C)NC(=O)c2nn(CCCCCF)c3ccccc23)c1` [Example 28, 1-(5-Fluoropentyl)-N-(2-{3-[(methylcarbamoyl)amino]phenyl}propan-2-yl)-1H-indazole-3-carboxamide]: on human CB1, the EC50 came to 30 nM and the “hCB1 Ca Span” value is on record as 100%. Moreover, at human CB2, the EC50 was 65 nM and the “hCB2 Ca Span” value amounted to 61%.
Take `CC(C)(NC(=O)c1nn(Cc2ccc(F)cc2)c2ccccc12)C1CCCN(C(N)=O)C1` (stereo not drawn) [Example 29, N-[2-(1-Carbamoylpiperidin-3-yl)propan-2-yl]-1-[(4-fluorophenyl)methyl]-1H-indazole-3-carboxamide]: on human CB1, the EC50 was determined as 140 nM and the “hCB1 Ca Span” value amounted to 75%. Also, on human CB2, the EC50 stood at 46 nM and the “hCB2 Ca Span” value is on record as 36%.
Turning to `CC(C)(NC(=O)c1nn(Cc2ccc(F)cc2)c2ccccc12)C1CCN(C(N)=O)CC1` [Example 31, N-[2-(1-Carbamoylpiperidin-4-yl)propan-2-yl]-1-[(4-fluorophenyl)methyl]-1H-indazole-3-carboxamide], on human CB1, the EC50 is 1000 nM and the “hCB1 Ca Span” value is on record as 64%. For the same molecule, at human CB2, the EC50 amounted to 140 nM and the “hCB2 Ca Span” value is recorded as 57%.
Turning to `CC(C)(NC(=O)c1nn(Cc2ccc(F)cc2)c2ccccc12)C1CCN(CC(N)=O)CC1` [Example 32, N-{2-[1-(Carbamoylmethyl)piperidin-4-yl]propan-2-yl}-1-[(4-fluorophenyl)methyl]-1H-indazole-3-carboxamide], on human CB1, the EC50 came out at 40 nM and the “hCB1 Ca Span” value worked out at 110%. Moreover, on human CB2, the EC50 stood at 29 nM and the “hCB2 Ca Span” value worked out at 62%.
In the case of `CC(C)(NC(=O)c1cn(Cc2ccc(F)cc2)c2ccccc12)c1cccc(C(N)=O)c1` [Example 33, N-[2-(3-Carbamoylphenyl)propan-2-yl]-1-[(4-fluorophenyl)methyl]-1H-indole-3-carboxamide], on human CB1, the EC50 worked out at 870 nM and the “hCB1 Ca Span” value was 25%. Besides, on human CB2, the EC50 is 160 nM and the “hCB2 Ca Span” value is listed as 30%.
